Molecular target: T1, human MAGL (His-hMAGL) (Homo sapiens, UniProt Q99685)
T1 construct: made in house; host or cells: Escherichia coli BL21(DE3)
T1 sequence (Q99685 1-303): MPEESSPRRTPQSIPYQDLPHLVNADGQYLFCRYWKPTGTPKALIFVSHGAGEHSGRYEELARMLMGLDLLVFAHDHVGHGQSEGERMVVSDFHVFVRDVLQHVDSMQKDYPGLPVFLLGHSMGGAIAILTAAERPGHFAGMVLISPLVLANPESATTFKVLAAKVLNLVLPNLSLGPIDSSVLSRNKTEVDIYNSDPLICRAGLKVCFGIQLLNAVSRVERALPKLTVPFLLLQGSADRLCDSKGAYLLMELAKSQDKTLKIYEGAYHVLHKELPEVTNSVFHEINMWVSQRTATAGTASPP
Experiment: Measurement of MAGL inhibitory activity by mass spectrometry
Assay type: biochemical
Conditions: MAGL inhibitory rate, test compound 10 μM, His-hMAGL, substrate 2-arachidonylglycerol, RapidFire-mass spectrometry
Summary of the method: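 His-tagged human MAGL was reacted with 150 μM 2-arachidonylglycerol substrate (stock, added by 5 μL) for 10 min at room temperature, then stopped with formic acid. Arachidonic acid product was quantified by RapidFire–triple-quadrupole MS in negative SRM mode, corrected by arachidonic acid-d8, and converted to percent inhibition.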

SMILES	inhibition at 10 µM [%]
O=C(c1nccs1)N1CCN(C2CC(=O)N(c3cccc(-c4cccc(F)c4F)c3)C2)CC1 (stereo not shown) [Example 299, 1-(2′,3′-difluorobiphenyl-3-yl)-4-(4-(1,3-thiazol-2-ylcarbonyl)piperazin-1-yl)pyrrolidin-2-one]	102
O=C(c1nccs1)N1CCN(C2CC(=O)N(c3cccc(-c4cc(Cl)ccc4Cl)c3)C2)CC1 (stereo not shown) [Example 300, 1-(2′,5′-dichlorobiphenyl-3-yl)-4-(4-(1,3-thiazol-2-ylcarbonyl)piperazin-1-yl)pyrrolidin-2-one]	101
Cc1cc(F)ccc1-c1cccc(N2CC(N3CCN(C(=O)c4nccs4)CC3)CC2=O)c1 (stereo not shown) [Example 301, 1-(4′-fluoro-2′-methylbiphenyl-3-yl)-4-(4-(1,3-thiazol-2-ylcarbonyl)piperazin-1-yl)pyrrolidin-2-one]	104
CS(=O)(=O)Nc1ccccc1-c1cccc(N2CC(N3CCN(C(=O)c4nccs4)CC3)CC2=O)c1 (stereo not shown) [Example 302, N-(3′-(2-oxo-4-(4-(1,3-thiazol-2-ylcarbonyl)piperazin-1-yl)pyrrolidin-1-yl)biphenyl-2-yl)methanesulfonamide]	98
CC(=O)Nc1ccccc1-c1cccc(N2CC(N3CCN(C(=O)c4nccs4)CC3)CC2=O)c1 (stereo not shown) [Example 303, N-(3′-(2-oxo-4-(4-(1,3-thiazol-2-ylcarbonyl)piperazin-1-yl)pyrrolidin-1-yl)biphenyl-2-yl)acetamide]	88
O=C(c1nccs1)N1CCN(C2CC(=O)N(c3cccc(-c4ccc(Cl)cc4F)c3)C2)CC1 (stereo not shown) [Example 304, 1-(4′-chloro-2′-fluorobiphenyl-3-yl)-4-(4-(1,3-thiazol-2-ylcarbonyl)piperazin-1-yl)pyrrolidin-2-one]	100
O=C(c1nccs1)N1CCN(C2CC(=O)N(c3cccc(-c4ccc(C(F)(F)F)cc4Cl)c3)C2)CC1 (stereo not shown) [Example 305, 1-(2′-chloro-4′-(trifluoromethyl)biphenyl-3-yl)-4-(4-(1,3-thiazol-2-ylcarbonyl)piperazin-1-yl)pyrrolidin-2-one]	96
O=C(c1nccs1)N1CCN(C2CC(=O)N(c3cccc(-c4ccccc4N4CCOCC4)c3)C2)CC1 (stereo not shown) [Example 306, 1-(2′-(morpholin-4-yl)biphenyl-3-yl)-4-(4-(1,3-thiazol-2-ylcarbonyl)piperazin-1-yl)pyrrolidin-2-one]	102
O=C(c1nccs1)N1CCN(C2CC(=O)N(c3cccc(-c4cccc5[nH]ccc45)c3)C2)CC1 (stereo not shown) [Example 307, 1-(3-(1H-indol-4-yl)phenyl)-4-(4-(1,3-thiazol-2-ylcarbonyl)piperazin-1-yl)pyrrolidin-2-one]	103
O=C(O)c1cccc(-c2cccc(N3CC(N4CCN(C(=O)c5nccs5)CC4)CC3=O)c2)c1 (stereo not shown) [Example 308, 3′-(2-oxo-4-(4-(1,3-thiazol-2-ylcarbonyl)piperazin-1-yl)pyrrolidin-1-yl)biphenyl-3-carboxylic acid]	98
CC(C)Oc1ccccc1-c1cccc(N2CC(N3CCN(C(=O)c4nccs4)CC3)CC2=O)c1 (stereo not shown) [Example 309, 1-(2′-isopropoxybiphenyl-3-yl)-4-(4-(1,3-thiazol-2-ylcarbonyl)piperazin-1-yl)pyrrolidin-2-one]	103
COc1cc(C(F)(F)F)ccc1-c1cccc(N2CC(N3CCN(C(=O)c4nccs4)CC3)CC2=O)c1 (stereo not shown) [Example 310, 1-(2′-methoxy-4′-(trifluoromethyl)biphenyl-3-yl)-4-(4-(1,3-thiazol-2-ylcarbonyl)piperazin-1-yl)pyrrolidin-2-one]	98
O=C(c1nccs1)N1CCN(C2CC(=O)N(c3cccc(-c4cccc5ccccc45)c3)C2)CC1 (stereo not shown) [Example 311, 1-(3-(1-naphthyl)phenyl)-4-(4-(1,3-thiazol-2-ylcarbonyl)piperazin-1-yl)pyrrolidin-2-one]	103
Cc1nn(C)c(C)c1-c1cccc(N2CC(N3CCN(C(=O)c4nccs4)CC3)CC2=O)c1 (stereo not shown) [Example 312]	101
O=C(c1nccs1)N1CCN(C2CC(=O)N(c3cccc(-c4cccc5ccsc45)c3)C2)CC1 (stereo not shown) [Example 313, 1-(3-(1-benzothiophen-7-yl)phenyl)-4-(4-(1,3-thiazol-2-ylcarbonyl)piperazin-1-yl)pyrrolidin-2-one]	101
O=C(c1nccs1)N1CCN(C2CC(=O)N(c3cccc(-c4cccc5c4OCC5)c3)C2)CC1 (stereo not shown) [Example 314, 1-(3-(2,3-dihydro-1-benzofuran-7-yl)phenyl)-4-(4-(1,3-thiazol-2-ylcarbonyl)piperazin-1-yl)pyrrolidin-2-one]	104
O=C(c1nccs1)N1CCN(C2CC(=O)N(c3cccc(-c4ccc(F)c(C(F)(F)F)c4)c3)C2)CC1 (stereo not shown) [Example 315, 1-(4′-fluoro-3′-(trifluoromethyl)biphenyl-3-yl)-4-(4-(1,3-thiazol-2-ylcarbonyl)piperazin-1-yl)pyrrolidin-2-one]	101
N#Cc1ccc(-c2cccc(N3CC(N4CCN(C(=O)c5nccs5)CC4)CC3=O)c2)c(F)c1 (stereo not shown) [Example 316, 2-fluoro-3′-(2-oxo-4-(4-(1,3-thiazol-2-ylcarbonyl)piperazin-1-yl)pyrrolidin-1-yl)biphenyl-4-carbonitrile]	97
O=C(c1nccs1)N1CCN(C2CC(=O)N(c3cccc(-c4cccc5cn[nH]c45)c3)C2)CC1 (stereo not shown) [Example 317, 1-(3-(1H-indazol-7-yl)phenyl)-4-(4-(1,3-thiazol-2-ylcarbonyl)piperazin-1-yl)pyrrolidin-2-one]	99
O=C(c1nccs1)N1CCN(C2CC(=O)N(c3cccc(-c4cccc5[nH]ncc45)c3)C2)CC1 (stereo not shown) [Example 318, 1-(3-(1H-indazol-4-yl)phenyl)-4-(4-(1,3-thiazol-2-ylcarbonyl)piperazin-1-yl)pyrrolidin-2-one]	103
NC(=O)Cc1cccc(-c2cccc(N3CC(N4CCN(C(=O)c5nccs5)CC4)CC3=O)c2)c1 (stereo not shown) [Example 319, 2-(3′-(2-oxo-4-(4-(1,3-thiazol-2-ylcarbonyl)piperazin-1-yl)pyrrolidin-1-yl)biphenyl-3-yl)acetamide]	102
O=C(c1nccs1)N1CCN(C2CC(=O)N(c3cccc(-c4cccc5cc[nH]c45)c3)C2)CC1 (stereo not shown) [Example 320, 1-(3-(1H-indol-7-yl)phenyl)-4-(4-(1,3-thiazol-2-ylcarbonyl)piperazin-1-yl)pyrrolidin-2-one]	100
O=C(c1cccc(-c2cccc(N3CC(N4CCN(C(=O)c5nccs5)CC4)CC3=O)c2)c1)N1CCCC1 (stereo not shown) [Example 321, 1-(3′-(pyrrolidin-1-ylcarbonyl)biphenyl-3-yl)-4-(4-(1,3-thiazol-2-ylcarbonyl)piperazin-1-yl)pyrrolidin-2-one]	102
Cc1cc(C#N)ccc1-c1cccc(N2CC(N3CCN(C(=O)c4nccs4)CC3)CC2=O)c1 (stereo not shown) [Example 322, 2-methyl-3′-(2-oxo-4-(4-(1,3-thiazol-2-ylcarbonyl)piperazin-1-yl)pyrrolidin-1-yl)biphenyl-4-carbonitrile]	103
COc1ccsc1-c1cccc(N2CC(N3CCN(C(=O)c4nccs4)CC3)CC2=O)c1 (stereo not shown) [Example 323, 1-(3-(3-methoxy-2-thienyl)phenyl)-4-(4-(1,3-thiazol-2-ylcarbonyl)piperazin-1-yl)pyrrolidin-2-one]	100

Source: US9624170B2, “4-(piperrazin-1-yl)-pyrrolidin-2-one compounds as monoacylglycerol lipase (MAGL) inhibitors” (TAKEDA PHARMACEUTICAL COMPANY LIMITED, priority 2013, dated 2017)
